Laboratory results taken from US10655185B2, “Methods for diagnosis and prognosis of epithelial tumors” (H. Lee Moffitt Cancer Center and Research Institute, Inc., priority 2014, dated 2020).

System: LNCaP-104S cells
Assay: Genome-wide miRNA expression profiling of androgen deprived / androgen blocked LNCaP cells
Assay type: cell-based
Text: FIGS. 1A and 1B show expression of miR-17-92 and Frabin in Androgen Deprived LNCaP Cells. The androgen dependent cell line, LNCaP-104S, was subjected to androgen deprivation or androgen blockade for 3 weeks. Genome-wide miRNA expression profiling identified the miR-17-92 family to be down regulated by 1 week, and further reduced at 3 weeks of treatment. […] FIG. 1B is a Western blot of FGD4/Frabin expression in treated and untreated LNCaP-104S cells.
Prolonged androgen blockade leads to outgrowth of androgen independent (AI) cells and the development of castration resistant prostate cancer (CRPC). The transition to androgen independence can occur through several adaptive mechanisms and usually results in the acquisition of a more aggressive phenotype, compared to their androgen sensitive progenitors. […] However, the role of miRNAs in progression of androgen sensitive prostate cancer to CRPC has not been clearly defined. To study this transition, androgen sensitive (AS) LNCaP prostate cancer cells were subjected to androgen blockade until a subset of cells (CDXR) survived. […] The miR-17-92 cluster is one of the groups of miRNAs that is down regulated as the cancer cells progresses towards androgen […] (ADT) resistance.

With `CC(O)(CS(=O)(=O)c1ccc(F)cc1)C(=O)Nc1ccc(C#N)c(C(F)(F)F)c1` (stereo not shown) [CDX] as the compound, how does the “fold change in expression (Δ Change) of hsa-miR-17” value (1 wk CDX) read?
The value was −3.37.

And the “fold change in expression (Δ Change) of hsa-miR-17*” value (1 wk CDX)?
The value was −3.13.

What about the “fold change in expression (Δ Change) of hsa-miR-18a” value (1 wk CDX) of the same compound?
The value was −4.36.

What about the “fold change in expression (Δ Change) of hsa-miR-18b” value (1 wk CDX) of the same compound?
The value was −2.28.

What about the “fold change in expression (Δ Change) of hsa-miR-20a” value (1 wk CDX) of the same compound?
Its value is −3.31.

And the “fold change in expression (Δ Change) of hsa-miR-20a*” value (1 wk CDX)?
Its value is −1.25.

And the “fold change in expression (Δ Change) of hsa-miR-20b*” value (1 wk CDX)?
Its value is −0.56.

And the “fold change in expression (Δ Change) of hsa-miR-106a” value (1 wk CDX)?
The value was −3.18.

And the “fold change in expression (Δ Change) of hsa-miR-17” value (3 wks CDX)?
Its value is −24.99.

And the “fold change in expression (Δ Change) of hsa-miR-17*” value (3 wks CDX)?
Its value is −3.94.

What about the “fold change in expression (Δ Change) of hsa-miR-18a” value (3 wks CDX) of the same compound?
The value was −14.13.

And the “fold change in expression (Δ Change) of hsa-miR-18b” value (3 wks CDX)?
The value was −21.36.

What about the “fold change in expression (Δ Change) of hsa-miR-20a” value (3 wks CDX) of the same compound?
The value was −4.12.

And the “fold change in expression (Δ Change) of hsa-miR-20a*” value (3 wks CDX)?
Its value is −18.17.

And the “fold change in expression (Δ Change) of hsa-miR-20b*” value (3 wks CDX)?
The value was −4.60.

And the “fold change in expression (Δ Change) of hsa-miR-106a” value (3 wks CDX)?
The value was −9.40.
